Data reported in US20040028687A1, “Methods and compositions for the targeted delivery of therapeutic substances to specific cells and tissues” (priority 2002, published 2004).
Where two headings read alike, the source gives them in different places.

Legend:
[1] = system: rNeu^+ (NF 9006) tumors; format: in vivo, mice; details: established rNeu+ tumors, i.v. every 3-4 days; comparison between treatments
[2] = system: rNeu^+ tumor cells; format: in vivo, mice
Description: FIG. 6: Effect of virosome treatment on recently implanted tumors. 2×10^5 rNeu^+ tumor cells were injected s.c. and treatment was started 3-5 days later. I.v. injections of the different virosome formulations such as Doxo-Vir, Fab′-Doxo-Vir, Fab′-Vir and free Doxo (all at a concentration of 150 μg/ml doxorubicin) were performed at the indicated time points (arrows) for a period of three weeks. Tumor size was assessed twice a week during therapy and weekly in the follow-up period. Tumor formation (defined as volume >90 mm^3) in the different groups and the follow-up of >12 weeks is shown. Statistical analysis using Mann-Whitney rank test was performed. Control groups (◯), free Doxo (▾), Doxo-Vir (♦), Fab′-Vir (●), Fab′-Doxo-Vir (▪)
In another preferred embodiment of the invention, conjugated virosomes are used to arrest the metastatic spread of tumors. […] The effect of Fab′ conjugated virosomes on the growth of tumor metastases is assessed as follows. […] Tumor formation is assessed by palpation followed by measurement of tumor size as described in the previous example. […]
For the micrometastatic stage of tumor formation, 0.2×10^6 tumor cells are injected s.c. and treatment is started 3-5 days later. […] Tumor formation is assessed by palpation followed by measurement of tumor size as described in the previous example. […]

[3] = cited from earlier work

COc1cccc2c1C(=O)c1c(O)c3c(c(O)c1C2=O)C[C@@](O)(C(=O)CO)C[C@@H]3O[C@H]1C[C@H](N)[C@H](O)[C@H](C)O1 [free Doxo, doxorubicin]
tumor progression compared with another treatment group [1]: no significant difference in tumor progression | median time to tumor formation ([2]; 2×10^5 rNeu+ cells s.c., treatment from day 3-5, 9 injections over 3 weeks, tumor formation >90 mm^3): 20 days | tumor development ([2]; within 4 weeks after tumor cell inoculation, all mice of the group): developed tumors | tolerated dose ([3]; SCID mice): 2 to 3 mg/kg | tolerated dose ([3]; normal mice): 6 mg/kg
